Laboratory results: patent US10639345B2, “Compositions for preserving photoreceptor cells, retinal pigment epithelial cells, or visual function” (Massachusetts Eye and Ear Infirmary, priority 2010, dated 2020)

Tests used:
photoreceptors [1] = experiment: TUNEL-positive cells after retinal detachment in RIP-3−/− mice; type: in vivo; settings: three days after retinal detachment
Experimental: The role of RIP-3 in RIP-mediated programmed necrosis in photoreceptor loss after retinal detachment was investigated in RIP-3 knockout (RIP-3−/−) mice. TUNEL assays were used to measure the amount of apoptotic and necrotic cell death (Grasl-Kraupp et al., HEPTALOGY (1995) 21(5):1465-8). TUNEL and quantification of TUNEL positive cells in ONL were performed as described above by using the ApopTag Fluorescein In Situ Apoptosis Detection Kit (Millipore, Billerica, Mass.).

NF-κB p65 = experiment: Western blot for phospho-NF-κB p65 after retinal detachment; type: in vivo
Source text: FIG. 16 is a photograph of an immunoblot from a Western blot analysis for phospho-NFκB p65 in control retina without a retinal detachment and in retina three days after retinal detachment with treatment of vehicle, Z-VAD or Z-VAD+Nec-1 (lane-loading differences were normalized by the level of β-tubulin).
The vitreous and neural retina combined was collected on day 3 after retinal detachment. Samples were run on 4-12% SDS-polyacrylamide gel electrophoresis and transferred onto PVDF membrane. After blocking with 3% nonfat dried milk, the membrane was reacted with RIP-3 (1:10000; Sigma, Saint Louis, […].), RIP-1 (1:2000; BD Biosciences), phosphoserine (1:2000; Enzo, Plymouth Meeting, Pa.) or anti-phosphorylated NF-κB p65 (1:1000; Cell signaling) antibody. Membranes were then developed with enhanced chemiluminescence. Lane-loading differences were normalized by β-tubulin (1:1000; Cell Signaling).
For Western Blot analysis, the vitreous and neural retina combined, were collected at three days after retinal detachment. Samples were run on 4-12% SDS-polyacrylamide gel electrophoresis and transferred onto PVDF membrane. After blocking with 3% nonfat dried milk, the membrane was reacted with anti-light chain 3 antibody (1:1000; Cell signaling), anti-phosphorylated ribosomal protein S6 antibody (1:1000; Cell Signaling) or anti-phosphorylated NF-κB p65 antibody (1:1000; Cell Signaling). […]

photoreceptors [2] = experiment: Normalized ONL thickness ratio after retinal detachment in RIP-3−/− mice; settings: five days after retinal detachment, RIP-3−/− mice
Experimental: TUNEL assays were used to measure the amount of apoptotic and necrotic cell death (Grasl-Kraupp et al., HEPTALOGY (1995) 21(5):1465-8). TUNEL and quantification of TUNEL positive cells in ONL were performed as described above by using the ApopTag Fluorescein In Situ Apoptosis Detection Kit (Millipore, Billerica, Mass.). The ratio of the ONL thickness to the thickness of neuroretina in the central area of the detached retina was determined by National Institutes of Health ImageJ software and standardized by that in the attached retina. The data are expressed as normalized ONL thickness ratio [(ONL/neuroretina thickness in detached retina)/(ONL/neuroretina thickness in attached retina)].

primary RPE cells = experiment: Viability of primary RPE cells treated with poly I:C (Cell Counting Kit-8); type: cell-based, mice; settings: WT primary RPE cells, 5 μg/ml poly I:C for 48 hours
Experimental: As described in Example 11, primary RPE cells were extracted from the retina of mice and cultured in the presence of 5 μg/ml of poly I:C for 48 hours or with PBS. Cell viability was measured using Cell Counting Kit-8 (Dojindo Laboratories, Kumamoto, Japan). This assay is based on the cleavage of 2-(2-methoxy-4-nitrophenyl)-3-(4-nitrophenyl)-5-(2,4-disulfophenyl)-2H-tetrazolium, monosodium salt (WST-8) by the mitochondrial dehydrogenase enzyme to produce a formazan dye. After incubation with WST-8 for two hours at 37° C., absorbance was measured at 450 nm to determine cell viability.

photoreceptors [3] = experiment: TEM quantification of apoptotic and necrotic photoreceptor death after retinal detachment; type: in vivo; settings: day three after retinal detachment, ONL
Experimental: The morphology of photoreceptors after retinal detachment was examined by transmission electron microscopy (TEM) and propidium iodide (PI) staining and the effect of treatment with Z-VAD and/or a Nec-1 compound of Formula I-C was analyzed.
TEM was performed as previously described (Hisatomi T et al. (2008). J. CLIN. INVEST. 118:2025-2038). […] Over 200 photoreceptors each eye were photographed and subjected to quantification of cell death modes in a masked fashion. Photoreceptors showing cellular shrinkage and nuclear condensation were defined as apoptotic cells, while photoreceptors associated with cellular and organelle swelling and discontinuities in nuclear and plasma membrane were defined as necrotic cells. The presence of electron-dense granular materials were reported to occur subsequent to both apoptotic and necrotic cell death and cells with these findings were labeled simply as end-stage cell death/unclassified (Hisatomi T et al. (2003) AM. J. PATHOL. 162:1869-1879; Erickson P A et al. (1983) INVEST. OPHTHALMOL. VIS. SCI. 24:927-942).
On day three after retinal detachment, photoreceptor death caused by apoptosis was almost twice that caused by necrosis in vehicle-treated retina (% apoptotic cells: 21.7±1.3%, necrotic cells: 13.3±1.0%, unclassified: 4.4±1.4%; FIGS. 7A and 7E).

photoreceptors [4] = experiment: Poly I:C-induced dry AMD model, TUNEL-positive cells in ONL; type: in vivo, mice; settings: compared with vehicle
Source text: (§1) In this example, the mechanism of photoreceptor cell death in dry AMD was investigated using a polyinosinic:polycytidylic acid (Poly I:C)-induced dry AMD model (Yang et al. (2009) NEJM 359(14):1456-63). Poly I:C is a synthetic double-stranded RNA (dsRNA) analog that activates toll-like receptor 3 (TLR3) signaling (FIG. 20A). Furthermore, dsRNA are known to exist in the drusen of human AMD patients. As depicted in FIG. 20A, activation of the TLR3 signaling results in activation of RIP-1 kinase pathway. […] In the experiments described herein, 2-3 μl of Poly I:C (1 mg/ml) was injected into the subretinal space of the eye (e.g., approximately 2-3 μg of Poly I:C was administered to the eye) to induce AMD.
The thickness of the ONL was determined by the National Institutes of Health ImageJ software. […] Specifically, the number of TUNEL-positive cells in the RIP-3−/− mice treated with poly I:C was at least three fold less than control mice consistent with RIP-3 playing a role in mediating programmed necrosis in AMD (FIG. 22B).
(§2) To determine the effect of Nec-1 and a pan-caspase inhibitor in the treatment of AMD, TUNEL assay was performed to assess photoreceptor cell death in the poly I:C induced AMD model. […] The thickness of ONL was also measured.

photoreceptors [5] = experiment: Normalized ONL thickness ratio after experimental retinal detachment; type: in vivo, rat; settings: subretinal Z-VAD 300 μM and/or Nec-1 400 μM
Experimental: Photoreceptor death was also assessed by TUNEL analysis at three days after retinal detachment in retina treated with either vehicle, Nec-1, Z-VAD or Nec-1+Z-VAD. […] Nine sections for each eye specimen were randomly selected, and the central area of detached retina and the mid-peripheral region of attached retina were photographed. The ONL thickness ratio was measured at ten points in each section by masked observers. […] (GCL: ganglion cell layer, INL: inner nuclear layer. *, P<0.05. Scale bar, 100 μm). […]
TNF-α protein contents in rat retina were determined using ELISA Kit for rat TNF-α (Invitrogen, Carlsbad, Calif.). Goat anti-mouse/rat TNF-α blocking antibody was purchased from R&D Systems (Minneapolis, Minn.). The rat eyes were subretinally injected with 1% of sodium hyaluronate containing 0.1 mg/ml of anti-TNF-α antibody or control antibody.

photoreceptors [6] = experiment: Poly I:C-induced dry AMD model, ONL thickness; type: in vivo, mice
Source text: as §1
The thickness of the outer nuclear layer (ONL) was also determined in WT or RIP-3−/− mice at 14 days following treatment with poly I:C. Sections were randomly selected from either WT or RIP-3−/− mice following poly I:C treatment and the retina was photographed. The ONL thickness was measured in each section by masked observers.
as §2

photoreceptors [7] = experiment: TUNEL-positive photoreceptors in ONL after experimental retinal detachment; type: in vivo, rat

Structure (SMILES)	number of TUNEL-positive cells (photoreceptors [1])	NF-κB p65 phosphorylation (NF-κB p65)	normalized ONL thickness ratio (photoreceptors [2])	viability of RPE cells (primary RPE cells)	% apoptotic cells (TEM) (photoreceptors [3])	% necrotic cells (TEM) (photoreceptors [3])	% unclassified (end-stage cell death, TEM) (photoreceptors [3])	number of TUNEL-positive cells in ONL (photoreceptors [4])	normalized ONL thickness ratio (photoreceptors [5]; five days after retinal detachment)	normalized ONL thickness ratio (photoreceptors [5]; three days after retinal detachment)	ONL thickness (photoreceptors [6])	number of TUNEL-positive cells in the ONL (photoreceptors [7]; day three after retinal detachment, subretinal Z-VAD 300 μM and/or Nec-1 400 μM at detachment)	neuroprotective effect / photoreceptor loss (TUNEL-positive photoreceptors and ONL thickness ratio) (photoreceptors [7]; day three after retinal detachment in rats, subretinal injection)
CN1C(=O)NC(Cc2c[nH]c3c(Cl)cccc23)C1=O (stereo not shown) [Nec-1]	786.7±278.7 cells/mm^2	no effect	0.761±0.049	did not protect RPE cells	19.8±2.0%	13.1±1.4%	2.8±0.4%	slight effect	0.58±0.12	0.71±0.09	minimal effect	1067.5±95.5 cells/mm^2	
C[C@H](NC(=O)C(=O)Nc1ccccc1C(C)(C)C)C(=O)N[C@@H](CC(=O)O)C(=O)COc1c(F)c(F)cc(F)c1F [IDN-6556, (3-{2-[(2-tert-butyl-phenylaminooxalyl)-amino]-propionylamino}-4-oxo-5-(2,3,5,6-tetrafluoro-phenoxy)-pentanoic acid)]													did not show any neuroprotective effect
